Values quoted from earlier work as cited in US11274111B2, “Arginase inhibitors and methods of use” (Merck Sharp & Dohme Corp., priority 2018, dated 2022).

Columns and labels:
[1] = test system: experimental autoimmune encephalomyelitis; conditions: cited from earlier work
[2] = test system: rabbit and human penile corpus cavernosum; conditions: cited from earlier work
[3] = test system: opossum internal anal sphincter muscle; conditions: cited from earlier work
live male rabbits = conditions: cited from earlier work
[4] = test system: corpus cavernosum of the diabetic person; conditions: ex vivo; cited from earlier work
live female rabbits = conditions: cited from earlier work
guinea pigs = conditions: nebulizer treatment, allergic asthma model; cited from earlier work

N[C@@H](CCCCB(O)O)C(=O)O [ABH, (S)-2-amino-6-boronohexanoic acid]
disease score [1]: improves the disease score of animals
nitric oxide-dependent relaxation of corpus cavernosum [2]: enhances the nitric oxide-dependent relaxation of this tissue
relaxation of internal anal sphincter muscle [3]: relax this muscle
erectile response (live male rabbits): enhances the erectile response
nitric oxide biosynthesis [4]: restores nitric oxide biosynthesis
engorgement response in the genitalia (live female rabbits): enhances the engorgement response
airway hyperresponsiveness (guinea pigs): prevents airway hyperresponsiveness
